Several values for one entry are separate records, joined by “and”; a condition that tells them apart may be missing. Identical values can stand only once. Like-named read-outs stand apart in the source and are kept apart here.
Tests used:
ZR-75-1 = experiment: Cell viability assay, adherent cell line, 5 day Alamar Blue (Example 8): ZR-75-1; format: cell-based; details: Homo sapiens, 120 h, ZR-75-1, Breast Cancer Cell Viability
Experimental: Cell viability assays were performed on certain compounds of the disclosure, according to the following procedure.
Cell line specific media conditions used:
The procedure for adherent cell line compound screening was as follows:
• Cells were seeded in 96-well cell culture treated tissue culture plates: ZR-75-1, NIHOVCAR3, T47D, and LOVO cells 4000 cells/well; and HPAFII 3000 cell/well
Day 3: Compound Dilution and Dosing
• 5-fold serial dilution (8 point) of each compound in DMSO 0-25 mM in compound storage plates was prepared (stored at −80° C. if not to be used immediately). • Cells were rinsed with 1% FBS Media (appropriate to cell line as described above) and replaced with 87.5 μL media prior to dosing. HPAFII was screened in normal 10% FBS Media. • DMSO compound dilution series was diluted in 1% FBS media (appropriate to cell line as described above)—2 μL in 248 μL to give an 8× final concentration. • Cells were dosed 12.5 μL/well in triplicate to give final dose curved on cells 0-25 μM. • Media blank 100 μL/well×8 was set up. • All plates were incubated at 37° C.
Day 8: 5 Day Viability Assay
• Alamar Blue viability reagent was added (10 μL per well) and incubated for 3 hours at 37° C. prior to fluorescence detection (Ex560 nm/Em590 nm) on a Varioskan Lux multimode plate reader.
Results from cell viability assays are summarized in Table 23, wherein A represents IC50≤1 μM; B represents 1 μM<IC50≤8 μM; and C represents IC50>8 μM. Blank cells indicate that the compound was not tested in a particular assay.

[1] = Pharmacokinetic studies of certain compounds in female Balb/c mice (Example 5); format: in vivo
Experimental: Pharmacokinetic studies were performed using Balb/c mice, 15-20 g, 6-9 weeks, female, N=9, purchased from Jihui Laboratory Animal Co. LTD. For compound I-29, Balb/c mice, 19-21 g, 9-11 weeks, female, N=9, were used. The mice were fasted overnight and fed at 4 h post dosing.
Animals were dosed via oral gavage (PO) or tail vein injection (IV) with compound. Sampling occurred at 0.083, 0.25, 0.5, 1, 2, 4, 8, and 24 h post dose (8 time points). The animals were restrained manually at the designated time points. Approx. […] of blood was taken from the animals via facial vein for semi-serial bleeding into tubes with K2EDTA. Blood samples were put on ice and centrifuged at 4° C. (2000 g, 5 min) to obtain plasma within 15 min after sample collection. Plasma samples were stored in dry ice temporarily and at approximately −70° C. until analysis.
For oral gavage, the compound was dosed as a suspension in 1% sodium carboxymethyl cellulose (CMC) and 0.2% Tween 80 in water. For 23.8 mg/kg and 30 mg/kg doses, 3 mg/mL was used; for 50 mg/kg doses, 5 mg/mL was used; and for 100 mg/kg doses, 10 mg/mL was used.
For IV administration, the compound was dosed as a solution in 5% DMSO, 5% Solutol HS15 and 90% saline. For 1 mg/kg and 1.48 mg/kg doses, 0.2 mg/mL was used.
Plasma samples were analyzed using LC-MS using a calibration curve of known concentrations.
The results of these studies are summarized in Tables 11-21 below and in FIGS. 2-8. […] BQL=below quantifiable limit for compound in female Balb/c mouse plasma samples. NA=not available. PK parameters were estimated by non-compartmental model using WinNonlin 8.2. If the adjusted rsq (linear regression coefficient of the concentration value on the terminal phase) was less than 0.9, T1/2 might not have been accurately estimated. F value was determined by the following equation: • If AUClast/AUCINF>80%:
F=(AUCINF-EX×DOSEIV)/(AUCINF-IV×DOSEEX)[…] • If AUClast/AUCINF<80% or AUCINF not available:
F=(AUClast-EX×DOSEIV)/(AUClast-IV×DOSEEX)*1000

[2] = I-29 IV 1.48 mg/kg, 4 hr, BQL = below quantifiable limit of 3.00 ng/mL
[3] = I-29 IV 1.48 mg/kg, 8 hr, BQL = below quantifiable limit of 3.00 ng/mL
[4] = I-29 IV 1.48 mg/kg, 24 hr, BQL = below quantifiable limit of 3.00 ng/mL
[5] = I-29 PO 23.8 mg/kg, 24 hr, BQL = below quantifiable limit of 3.00 ng/mL
[6] = mouse, plasma, I-29 IV 1.48 mg/kg
[7] = mouse, plasma, I-29 PO 23.8 mg/kg

Plasma concentration Individual ([1]; I-29 IV 1.48 mg/kg, 0.083 hr, 1.48 mg/kg): 641 ng/mL and 603 ng/mL | Plasma concentration Individual ([1]; I-29 IV 1.48 mg/kg, 0.25 hr, 1.48 mg/kg): 121 ng/mL and 162 ng/mL and 336 ng/mL | Plasma concentration Individual ([1]; I-29 IV 1.48 mg/kg, 0.5 hr, 1.48 mg/kg): 71.2 ng/mL and 51.0 ng/mL | Plasma concentration Individual ([1]; I-29 IV 1.48 mg/kg, 1 hr, 1.48 mg/kg): 15.9 ng/mL and 81.1 ng/mL and 29.6 ng/mL | Plasma concentration Individual ([1]; I-29 IV 1.48 mg/kg, 2 hr, 1.48 mg/kg): 3.54 ng/mL and 4.97 ng/mL and 7.24 ng/mL | Plasma concentration Individual [1, 2]: BQL | Plasma concentration Mean [1, 2]: BQL | Plasma concentration Individual [1, 3]: BQL | Plasma concentration Mean [1, 3]: BQL | Plasma concentration Individual [1, 4]: BQL | Plasma concentration Mean [1, 4]: BQL | F ([1]; I-29 PO 23.8 mg/kg vs IV 1.48 mg/kg): 67.3% | Plasma concentration Individual ([1]; I-29 PO 23.8 mg/kg, 0.083 hr, 23.8 mg/kg): 39.6 ng/mL and 53.6 ng/mL | Plasma concentration Individual ([1]; I-29 PO 23.8 mg/kg, 0.25 hr, 23.8 mg/kg): 147 ng/mL and 146 ng/mL | Plasma concentration Individual ([1]; I-29 PO 23.8 mg/kg, 0.5 hr, 23.8 mg/kg): 344 ng/mL and 464 ng/mL | Plasma concentration Individual ([1]; I-29 PO 23.8 mg/kg, 1 hr, 23.8 mg/kg): 237 ng/mL and 618 ng/mL and 703 ng/mL | Plasma concentration Individual ([1]; I-29 PO 23.8 mg/kg, 2 hr, 23.8 mg/kg): 620 ng/mL and 640 ng/mL | Plasma concentration Individual ([1]; I-29 PO 23.8 mg/kg, 4 hr, 23.8 mg/kg): 147 ng/mL and 218 ng/mL | Plasma concentration Individual ([1]; I-29 PO 23.8 mg/kg, 8 hr, 23.8 mg/kg): 106 ng/mL and 75.9 ng/mL | Plasma concentration Individual [1, 5]: BQL | Plasma concentration Mean [1, 5]: BQL | concentration at 0.083 hr ([1]; female, Balb/c, mouse, plasma, iv, 1.48 mg/kg, I-29 IV 1.48 mg/kg, 0.083 hr, read-out: Plasma concentration Individual): 558 ng/mL | concentration at 0.083 hr ([1]; female, Balb/c, mouse, plasma, iv, 1.48 mg/kg, I-29 IV 1.48 mg/kg, 0.083 hr, read-out: Plasma concentration Mean): 601 ng/mL | concentration at 0.25 hr ([1]; female, Balb/c, mouse, plasma, iv, 1.48 mg/kg, I-29 IV 1.48 mg/kg, 0.25 hr, read-out: Plasma concentration Mean): 206 ng/mL | concentration at 0.5 h ([1]; female, Balb/c, mouse, plasma, iv, 1.48 mg/kg, I-29 IV 1.48 mg/kg, 0.5 hr, read-out: Plasma concentration Individual): 95.5 ng/mL | concentration at 0.5 h ([1]; female, Balb/c, mouse, plasma, iv, 1.48 mg/kg, I-29 IV 1.48 mg/kg, 0.5 hr, read-out: Plasma concentration Mean): 72.6 ng/mL | concentration at 1 h ([1]; female, Balb/c, mouse, plasma, iv, 1.48 mg/kg, I-29 IV 1.48 mg/kg, 1 hr, read-out: Plasma concentration Mean): 42.2 ng/mL | concentration at 2 hr ([1]; female, Balb/c, mouse, plasma, iv, 1.48 mg/kg, I-29 IV 1.48 mg/kg, 2 hr, read-out: Plasma concentration Mean): 5.25 ng/mL | concentration at 0.083 hr ([1]; female, Balb/c, mouse, plasma, po, 23.8 mg/kg, I-29 PO 23.8 mg/kg, 0.083 hr, read-out: Plasma concentration Individual): 31.6 ng/mL | concentration at 0.083 hr ([1]; female, Balb/c, mouse, plasma, po, 23.8 mg/kg, I-29 PO 23.8 mg/kg, 0.083 hr, read-out: Plasma concentration Mean): 41.6 ng/mL | concentration at 0.25 hr ([1]; female, Balb/c, mouse, plasma, po, 23.8 mg/kg, I-29 PO 23.8 mg/kg, 0.25 hr, read-out: Plasma concentration Individual): 160 ng/mL | concentration at 0.25 hr ([1]; female, Balb/c, mouse, plasma, po, 23.8 mg/kg, I-29 PO 23.8 mg/kg, 0.25 hr, read-out: Plasma concentration Mean): 151 ng/mL | concentration at 0.5 hr ([1]; female, Balb/c, mouse, plasma, po, 23.8 mg/kg, I-29 PO 23.8 mg/kg, 0.5 hr, read-out: Plasma concentration Individual): 305 ng/mL | concentration at 0.5 hr ([1]; female, Balb/c, mouse, plasma, po, 23.8 mg/kg, I-29 PO 23.8 mg/kg, 0.5 hr, read-out: Plasma concentration Mean): 371 ng/mL | concentration at 1 hr ([1]; female, Balb/c, mouse, plasma, po, 23.8 mg/kg, I-29 PO 23.8 mg/kg, 1 hr, read-out: Plasma concentration Mean): 519 ng/mL | concentration at 2 hr ([1]; female, Balb/c, mouse, plasma, po, 23.8 mg/kg, I-29 PO 23.8 mg/kg, 2 hr, read-out: Plasma concentration Individual): 554 ng/mL | concentration at 2 hr ([1]; female, Balb/c, mouse, plasma, po, 23.8 mg/kg, I-29 PO 23.8 mg/kg, 2 hr, read-out: Plasma concentration Mean): 605 ng/mL | concentration at 4 hr ([1]; female, Balb/c, mouse, plasma, po, 23.8 mg/kg, I-29 PO 23.8 mg/kg, 4 hr, read-out: Plasma concentration Individual): 187 ng/mL | concentration at 4 hr ([1]; female, Balb/c, mouse, plasma, po, 23.8 mg/kg, I-29 PO 23.8 mg/kg, 4 hr, read-out: Plasma concentration Mean): 184 ng/mL | concentration at 8 hr ([1]; female, Balb/c, mouse, plasma, po, 23.8 mg/kg, I-29 PO 23.8 mg/kg, 8 hr, read-out: Plasma concentration Individual): 57.1 ng/mL | concentration at 8 hr ([1]; female, Balb/c, mouse, plasma, po, 23.8 mg/kg, I-29 PO 23.8 mg/kg, 8 hr, read-out: Plasma concentration Mean): 79.7 ng/mL | AUC(0-inf) [1, 6]: 225 ng·h/mL | AUC(0-t) [1, 6]: 222 ng·h/mL | C0 [1, 6]: 1020 ng/mL | MRT inf [1, 6]: 0.33 h | MRT last [1, 6]: 0.304 h | clearance [1, 6]: 110 mL/min/kg | half-life [1, 6]: 0.352 h | Vd ([1]; mouse, plasma, I-29 IV 1.48 mg/kg, read-out: Vss): 2.18 L/kg | AUC(0-inf) [1, 7]: 2430 ng·h/mL | AUC(0-t) [1, 7]: 2180 ng·h/mL | Cmax [1, 7]: 605 ng/mL | MRT inf [1, 7]: 3.51 h | MRT last [1, 7]: 2.64 h | Tmax [1, 7]: 2 h | half-life [1, 7]: 2.17 h
SMILES: CC(C)Cc1sc(Nc2ncc(-c3cccs3)cc2C(=O)O)nc1C1CCC(F)(F)CC1 [Compound I-29]
IC50 (ZR-75-1): ≤ 1000 nM

Reference: patent US20240208961A1, “EIF4E INHIBITORS AND USES THEREOF” (PIC Therapeutics, Inc., priority 2022, published 2024)
